Reference: patent US8168651B2, “Protein kinase modulators” (Cylene Pharmaceuticals, Inc., priority 2008, dated 2012)

Assays:
Assay in all cases: Standardized radiometric kinase assays, percentage of activity at 0.5 μM;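 note: Read-out is ³³P-labelled substrate protein phosphorylated by each kinase, captured on filters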
[1] = molecular target: each individual kinase of the panel (Homo sapiens, UniProt O75116)
[2] = molecular target: each individual kinase of the panel (Homo sapiens, UniProt O96017, I157T)
[3] = molecular target: each individual kinase of the panel (Homo sapiens, UniProt P14616)
[4] = molecular target: each individual kinase of the panel (Homo sapiens, UniProt P41743)
[5] = molecular target: each individual kinase of the panel (Homo sapiens, UniProt P51617)
[6] = molecular target: each individual kinase of the panel (Homo sapiens, UniProt P51817)
[7] = molecular target: each individual kinase of the panel (Homo sapiens, UniProt P54764)
[8] = molecular target: each individual kinase of the panel (Homo sapiens, UniProt Q09013)
[9] = molecular target: each individual kinase of the panel (Homo sapiens, UniProt Q15759)
[10] = molecular target: each individual kinase of the panel (Homo sapiens, UniProt Q16513)
[11] = molecular target: each individual kinase of the panel (Homo sapiens, UniProt Q16620)
[12] = molecular target: each individual kinase of the panel (Homo sapiens, UniProt Q16644)
[13] = molecular target: each individual kinase of the panel (Homo sapiens, UniProt Q9BYP7)
[14] = molecular target: each individual kinase of the panel (Homo sapiens, UniProt Q9UL54)
[15] = molecular target: each individual kinase of the panel (Homo sapiens, UniProt Q9Y243)
Chain of each individual kinase of the panel (Homo sapiens, UniProt Q9Y243) (Q9Y243 2-479 limits assumed): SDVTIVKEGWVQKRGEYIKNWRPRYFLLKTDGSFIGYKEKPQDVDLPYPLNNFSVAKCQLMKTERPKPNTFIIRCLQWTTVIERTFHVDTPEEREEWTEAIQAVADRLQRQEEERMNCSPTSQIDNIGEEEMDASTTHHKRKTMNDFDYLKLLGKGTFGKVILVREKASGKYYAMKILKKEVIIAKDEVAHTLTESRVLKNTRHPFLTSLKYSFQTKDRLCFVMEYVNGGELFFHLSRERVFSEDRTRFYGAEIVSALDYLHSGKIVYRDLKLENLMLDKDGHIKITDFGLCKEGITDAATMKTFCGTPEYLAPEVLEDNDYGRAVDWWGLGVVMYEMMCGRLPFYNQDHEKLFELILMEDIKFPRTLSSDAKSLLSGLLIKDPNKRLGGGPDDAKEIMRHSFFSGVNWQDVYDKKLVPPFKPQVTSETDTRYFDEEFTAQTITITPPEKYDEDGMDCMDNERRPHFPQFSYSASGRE

Chain of each individual kinase of the panel (Homo sapiens, UniProt P14616) (P14616 27-742 limits assumed): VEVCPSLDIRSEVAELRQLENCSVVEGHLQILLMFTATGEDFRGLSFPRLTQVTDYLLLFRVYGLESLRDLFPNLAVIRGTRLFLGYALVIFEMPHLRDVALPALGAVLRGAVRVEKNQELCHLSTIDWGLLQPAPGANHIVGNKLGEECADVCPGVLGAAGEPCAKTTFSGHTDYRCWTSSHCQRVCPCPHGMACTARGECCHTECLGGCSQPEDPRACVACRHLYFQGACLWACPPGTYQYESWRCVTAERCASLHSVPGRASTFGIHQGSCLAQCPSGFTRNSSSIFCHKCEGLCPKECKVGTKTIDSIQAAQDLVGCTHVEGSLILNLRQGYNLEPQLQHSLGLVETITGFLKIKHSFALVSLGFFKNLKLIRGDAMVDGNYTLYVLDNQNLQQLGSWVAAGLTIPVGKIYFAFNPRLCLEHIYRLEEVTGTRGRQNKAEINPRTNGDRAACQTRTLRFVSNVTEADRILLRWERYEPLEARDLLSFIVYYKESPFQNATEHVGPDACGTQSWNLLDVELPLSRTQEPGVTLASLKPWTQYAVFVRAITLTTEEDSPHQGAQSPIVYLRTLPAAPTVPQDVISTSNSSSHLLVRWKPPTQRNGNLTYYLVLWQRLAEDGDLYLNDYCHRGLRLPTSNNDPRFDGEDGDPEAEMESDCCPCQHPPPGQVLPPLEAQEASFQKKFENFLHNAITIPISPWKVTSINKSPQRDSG
Chain of each individual kinase of the panel (Homo sapiens, UniProt P14616) (P14616 747-1297 limits assumed): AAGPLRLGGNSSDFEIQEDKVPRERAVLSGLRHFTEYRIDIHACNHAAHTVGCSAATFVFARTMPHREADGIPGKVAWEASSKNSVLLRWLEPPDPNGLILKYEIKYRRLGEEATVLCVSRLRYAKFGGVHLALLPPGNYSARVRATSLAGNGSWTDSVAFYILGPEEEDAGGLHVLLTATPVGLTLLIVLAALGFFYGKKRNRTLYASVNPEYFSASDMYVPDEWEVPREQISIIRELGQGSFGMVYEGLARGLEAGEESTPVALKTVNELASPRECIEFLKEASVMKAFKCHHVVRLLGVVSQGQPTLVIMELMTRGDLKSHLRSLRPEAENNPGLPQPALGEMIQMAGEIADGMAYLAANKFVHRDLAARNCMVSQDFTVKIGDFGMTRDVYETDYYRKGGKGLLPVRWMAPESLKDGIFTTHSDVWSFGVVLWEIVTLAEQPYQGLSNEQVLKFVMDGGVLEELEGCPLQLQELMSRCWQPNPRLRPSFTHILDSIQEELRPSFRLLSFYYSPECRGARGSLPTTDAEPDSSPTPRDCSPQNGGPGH
Chain of each individual kinase of the panel (Homo sapiens, UniProt P41743) (P41743 2-596 limits assumed): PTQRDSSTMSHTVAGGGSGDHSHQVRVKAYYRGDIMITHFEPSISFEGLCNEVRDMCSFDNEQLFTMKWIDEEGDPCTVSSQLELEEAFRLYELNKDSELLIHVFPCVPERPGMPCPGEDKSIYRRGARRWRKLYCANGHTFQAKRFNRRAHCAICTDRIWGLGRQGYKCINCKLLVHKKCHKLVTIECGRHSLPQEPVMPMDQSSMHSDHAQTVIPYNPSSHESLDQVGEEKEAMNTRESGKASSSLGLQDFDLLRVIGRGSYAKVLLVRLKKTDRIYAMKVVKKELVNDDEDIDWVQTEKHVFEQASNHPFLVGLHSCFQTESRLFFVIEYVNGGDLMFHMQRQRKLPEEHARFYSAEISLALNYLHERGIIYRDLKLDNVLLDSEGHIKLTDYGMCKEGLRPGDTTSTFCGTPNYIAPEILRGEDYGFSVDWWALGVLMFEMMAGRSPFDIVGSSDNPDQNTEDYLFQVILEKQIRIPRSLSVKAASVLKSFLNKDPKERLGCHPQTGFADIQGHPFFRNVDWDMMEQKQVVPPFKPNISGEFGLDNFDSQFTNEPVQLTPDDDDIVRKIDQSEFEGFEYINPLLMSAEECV
Chain of each individual kinase of the panel (Homo sapiens, UniProt P54764) (P54764 20-986 limits assumed): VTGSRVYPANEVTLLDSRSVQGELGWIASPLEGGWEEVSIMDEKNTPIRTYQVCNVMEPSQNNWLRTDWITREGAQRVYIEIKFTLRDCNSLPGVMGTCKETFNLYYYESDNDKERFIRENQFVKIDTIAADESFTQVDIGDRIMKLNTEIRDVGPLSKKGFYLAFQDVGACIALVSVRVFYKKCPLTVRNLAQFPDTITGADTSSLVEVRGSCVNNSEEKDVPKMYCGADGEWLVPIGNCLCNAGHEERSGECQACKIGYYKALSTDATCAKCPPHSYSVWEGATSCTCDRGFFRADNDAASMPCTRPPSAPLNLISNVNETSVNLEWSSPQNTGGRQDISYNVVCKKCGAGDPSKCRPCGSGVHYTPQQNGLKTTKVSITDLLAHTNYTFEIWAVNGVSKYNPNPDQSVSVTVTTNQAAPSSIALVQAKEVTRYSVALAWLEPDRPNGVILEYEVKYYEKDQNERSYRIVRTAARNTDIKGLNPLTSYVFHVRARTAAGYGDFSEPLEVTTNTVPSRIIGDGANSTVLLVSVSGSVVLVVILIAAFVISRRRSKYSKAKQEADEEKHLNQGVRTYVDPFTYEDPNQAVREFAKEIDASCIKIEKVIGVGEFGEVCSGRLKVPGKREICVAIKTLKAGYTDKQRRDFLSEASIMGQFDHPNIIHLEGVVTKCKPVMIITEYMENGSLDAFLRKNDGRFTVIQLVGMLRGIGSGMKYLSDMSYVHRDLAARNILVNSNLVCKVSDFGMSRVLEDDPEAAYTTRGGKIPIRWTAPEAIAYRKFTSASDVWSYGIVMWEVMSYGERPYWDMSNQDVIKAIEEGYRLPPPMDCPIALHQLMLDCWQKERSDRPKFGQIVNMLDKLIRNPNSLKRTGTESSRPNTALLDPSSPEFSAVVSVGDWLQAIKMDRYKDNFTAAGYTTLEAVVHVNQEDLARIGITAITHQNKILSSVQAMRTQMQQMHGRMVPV
Chain of each individual kinase of the panel (Homo sapiens, UniProt Q16620) (Q16620 32-822 limits assumed): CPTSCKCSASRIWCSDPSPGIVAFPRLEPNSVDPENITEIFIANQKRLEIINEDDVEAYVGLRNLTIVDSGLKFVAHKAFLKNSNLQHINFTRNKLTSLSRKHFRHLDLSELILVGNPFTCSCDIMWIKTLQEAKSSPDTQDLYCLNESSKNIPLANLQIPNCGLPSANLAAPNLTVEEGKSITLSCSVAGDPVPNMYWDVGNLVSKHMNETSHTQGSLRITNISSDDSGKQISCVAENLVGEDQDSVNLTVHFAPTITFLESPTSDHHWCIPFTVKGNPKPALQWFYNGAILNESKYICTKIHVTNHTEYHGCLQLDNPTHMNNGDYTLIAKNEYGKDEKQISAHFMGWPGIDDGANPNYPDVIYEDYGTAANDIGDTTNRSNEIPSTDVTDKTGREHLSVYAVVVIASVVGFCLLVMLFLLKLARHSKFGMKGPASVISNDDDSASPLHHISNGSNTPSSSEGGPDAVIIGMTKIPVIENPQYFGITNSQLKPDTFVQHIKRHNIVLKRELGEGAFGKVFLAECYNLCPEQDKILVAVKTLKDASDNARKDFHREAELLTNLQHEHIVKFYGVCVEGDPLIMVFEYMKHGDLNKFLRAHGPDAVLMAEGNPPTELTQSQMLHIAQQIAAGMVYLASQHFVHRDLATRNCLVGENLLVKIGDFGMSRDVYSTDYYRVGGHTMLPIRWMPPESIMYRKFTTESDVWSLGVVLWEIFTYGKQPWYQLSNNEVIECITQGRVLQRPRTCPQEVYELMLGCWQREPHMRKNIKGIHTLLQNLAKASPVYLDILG

C#Cc1cccc(Nc2nc3cc(C(=O)O)ccc3c3cncnc23)c1 [drawing 1135]
ROCK-II percentage of activity [1]: −4% | CHK2(1157T) (h) percentage of activity [2]: 3% | INSRR percentage of activity [3]: −21% | PRKCI percentage of activity [4]: −5% | IRAK1 percentage of activity [5]: 4% | PRKX percentage of activity [6]: 3% | EPHA4 percentage of activity [7]: −3% | DMPK percentage of activity [8]: 4% | p38-beta percentage of activity [9]: 5% | PRK2 percentage of activity [10]: 3% | TRKB percentage of activity [11]: 10% | MAPKAPK3 percentage of activity [12]: −8% | WNK3 percentage of activity [13]: −17% | TAO2 percentage of activity [14]: 3% | AKT3 percentage of activity [15]: 0%
